Measurements reported in ChEMBL document CHEMBL1148936, “Benzoic acid derivatives from Piper species and their fungitoxic activity against Cladosporium cladosporioides and C. sphaerospermum” (2004).
Calls of active or inactive are those of the source. No cut-off for these calls is given here.

Assays:
[1] = test system: Cladosporium cladosporioides; assay: Antifungal activity against Cladosporium cladosporioides assessed as minimum concentration required to inhibit growth after 72 hrs by TLC; format: functional
[2] = test system: Cladosporium sphaerospermum; assay: Antifungal activity against Cladosporium sphaerospermum assessed as minimum concentration required to inhibit growth after 72 hrs by TLC; format: functional
[3] = test system: Cladosporium cladosporioides; assay: Antifungal activity against Cladosporium cladosporioides at 100 ug after 72 hrs by TLC; format: functional, organism-based
[4] = test system: Cladosporium sphaerospermum; assay: Antifungal activity against Cladosporium sphaerospermum at 100 ug after 72 hrs by TLC; format: functional, organism-based

Molecule | Activity [1] [µg] | Activity [2] [µg] | Activity [3] | Activity [4]
COc1cc(CCC(=O)O)cc(OC)c1OC | 10 | 10 | – | –
COc1cc(O)c2c(c1)O[C@H](c1ccc(O)cc1)CC2=O [SAKURANETIN] | 1 | 1 | – | –
COC(=O)c1ccc(O)c(CC=C(C)C)c1 | 1 | 1 | – | –
Clc1ccc(COC(Cn2ccnc2)c2ccc(Cl)cc2Cl)c(Cl)c1 (configuration not stated) [MICONAZOLE] | 1 | 1 | – | –
O=C1C[C@@H](c2ccccc2)Oc2cc(O)cc(O)c21 [PINOCEMBRIN] | 1 | 1 | – | –
NYSTATIN | 1 | 1 | – | –
CC(C)=CCC/C(C)=C/C(=O)c1cc(O)ccc1O | 1 | 1 | – | –
C=C(C)C(O)Cc1cc(C(=O)OC)ccc1O (configuration not stated) | 5 | 5 | – | –
COC(=O)c1ccc2c(c1)C=CC(C)(C)O2 | 5 | 5 | – | –
CC(C)=CCC/C(C)=C/Cc1cc(C(=O)O)ccc1O | 5 | 5 | – | –
COC(=O)c1ccc(O)c(CC(O)C(C)(C)O)c1 (configuration not stated) [HOSTMANIANE] | 0.5 | 0.5 | – | –
CC(C)=CCC[C@@]1(C)C=Cc2cc(C(=O)O)cc(CC=C(C)C)c2O1 | 10 | 10 | – | –
CC1(C)C=Cc2cc(C(=O)O)ccc2O1 | 5 | 5 | – | –
COc1ccc(C(=O)O)cc1C/C=C(\C)CCC=C(C)C | – | – | inactive | inactive
COC(=O)c1cc(C(=O)C=C(C)C)ccc1OC [ADUNCUMENE] | 5 | 5 | – | –
COc1cc(O)c(C(=O)CCc2ccccc2)c(O)c1 | – | – | inactive | inactive
CC(C)=CCCC(C)(O)CC(=O)c1cc(C(=O)O)ccc1O (configuration not stated) [CRASSINERVIC ACID] | 0.5 | 0.5 | – | –
COC(=O)c1ccc(O)c([C@@H]2c3c(OC)cc(O)c(C(=O)CCc4ccccc4)c3O[C@H]2C(C)(C)O)c1 | – | – | inactive | inactive
COC(=O)c1cc(O)c2c(c1)C=CC(C)(C)O2 | 5 | 5 | – | –
COC(=O)c1ccc(O)c(C(=O)C=C(C)C)c1 | – | – | inactive | inactive
COC(=O)c1cc2c(c(CC=C(C)C)c1)OC(C)(C)C=C2 | 0.1 | 0.1 | – | –
